Measurements reported in PubChem BioAssay AID208 (DTP/NCI, 2004).
“And” between values parts separate entries of the source, which are not always exact repeats. Identical values can stand only once. Records with an inconclusive call do not appear.

Tested on: HT29 intrarenal xenograft, nude mice, tumor weight change
Assay: NCI In Vivo Anticancer Drug Screen. Data for tumor model HT29;CX-1 Human Adenocarcinoma (MER+) (intrarenal inoculation) in NU/NU BALB/C (nude) mice
Settings: endpoint: mean tumor weight change, higher = larger tumour
Protocol: The antitumor activity of compounds was measured in mice bearing transplantable tumors. Survival or tumor size were measured and the results are expressed as the measurement made in the treated group (T) divided by the measurement made in the vehicle treated control group (C). The tumor model used in this assay is HT29;CX-1 Human Adenocarcinoma (MER+) (intrarenal inoculation) in NU/NU BALB/C (nude) mice

[1] = dose: 100.0 mg/kg/injection, schedule: Q01DX010 (sc), vehicle: Klucel (hydroxypropylcellulose) (HPC)
[2] = dose: 200.0 mg/kg/injection, schedule: Q01DX010 (sc), vehicle: Klucel (hydroxypropylcellulose) (HPC)
[3] = dose: 400.0 mg/kg/injection, schedule: Q01DX010 (sc), vehicle: Klucel (hydroxypropylcellulose) (HPC)
[4] = dose: 800.0 mg/kg/injection, schedule: Q01DX010 (sc), vehicle: Klucel (hydroxypropylcellulose) (HPC)
[5] = dose: 75.0 mg/kg/injection, schedule: Q04DX004 (sc), vehicle: saline

O=C(Nc1cc(Cl)ccc1C(=O)O)c1cccc(C[n+]2ccccc2)c1
T/C (dose: 150.0 mg/kg/injection, schedule: Q04DX004 (ip), vehicle: saline with Tween-80): 100 % of control | T/C (dose: 300.0 mg/kg/injection, schedule: Q04DX004 (ip), vehicle: saline with Tween-80): 123 % of control

CN(C)c1ccc2c(NCCCCCCNc3ccnc4cc(N(C)C)ccc34)ccnc2c1
T/C (dose: 37.5 mg/kg/injection, schedule: Q04DX004 (sc), vehicle: distilled water + Tween-80 + alcohol): 92 % of control | T/C (dose: 75.0 mg/kg/injection, schedule: Q04DX004 (sc), vehicle: distilled water + Tween-80 + alcohol): 60 % of control | T/C (dose: 150.0 mg/kg/injection, schedule: Q04DX004 (sc), vehicle: distilled water + Tween-80 + alcohol): 54 % of control

Nc1nc(=S)c2ncn(C3CC(O)C(CO)O3)c2[nH]1 (stereo not drawn)
T/C (dose: 1.88 mg/kg/injection, schedule: Q01DX010 (sc), vehicle: saline with Tween-80): 164 % of control

COc1cccc2c1C(=O)c1c(O)c3c(c(O)c1C2=O)C[C@@](O)(/C(C)=N\O)C[C@@H]3OC1CC(N)C(O)C(C)O1 (stereo partly drawn)
T/C (dose: 12.5 mg/kg/injection, schedule: Q04DX004 (sc), vehicle: saline): 150 % of control | T/C (dose: 25.0 mg/kg/injection, schedule: Q04DX004 (sc), vehicle: saline): 100 % of control | T/C (dose: 50.0 mg/kg/injection, schedule: Q04DX004 (sc), vehicle: saline): 103 % of control

Cc1ccc(S(=O)(=O)N/N=C/C(=O)O)cc1
T/C [1]: 87 % of control | T/C [2]: 50 % of control | T/C [3]: 96 % of control | T/C [4]: 106 % of control

Nc1ncnc2c1ccn2C1OC(CO)C(O)C1O (stereo not drawn)
T/C (dose: 2.0 mg/kg/injection, schedule: Q01DX010 (sc), vehicle: Klucel (hydroxypropylcellulose) (HPC)): 96 % of control | T/C (dose: 4.0 mg/kg/injection, schedule: Q01DX010 (sc), vehicle: Klucel (hydroxypropylcellulose) (HPC)): 81 % of control

N#CC(C#N)=C/C=C/c1cccc([N+](=O)[O-])c1
T/C (dose: 25.0 mg/kg/injection, schedule: Q01DX010 (sc), vehicle: Klucel (hydroxypropylcellulose) (HPC)): 81 % of control | T/C (dose: 50.0 mg/kg/injection, schedule: Q01DX010 (sc), vehicle: Klucel (hydroxypropylcellulose) (HPC)): 90 % of control | T/C [1]: 76 % of control | T/C [2]: 63 % of control

OCCOCCN1CCN(CCCN2c3ccccc3Sc3ccc(C(F)(F)F)cc32)CC1
T/C (dose: 12.0 mg/kg/injection, schedule: Q01DX010 (sc), vehicle: saline): 23 % of control | T/C (dose: 24.0 mg/kg/injection, schedule: Q01DX010 (sc), vehicle: saline): 47 % of control | T/C (dose: 48.0 mg/kg/injection, schedule: Q01DX010 (sc), vehicle: saline): 42 % of control

O=S(CCCl)CCCl
T/C (dose: 25.0 mg/kg/injection, schedule: Q04DX004 (sc), vehicle: Klucel (hydroxypropylcellulose) (HPC)): 98 % of control | T/C (dose: 50.0 mg/kg/injection, schedule: Q04DX004 (sc), vehicle: Klucel (hydroxypropylcellulose) (HPC)): 64 % of control

Nc1nc2c(ncn2C2OC(CO)C(O)C2O)c(=O)[nH]1 (stereo not drawn)
T/C (dose: 225.0 mg/kg/injection, schedule: Q04DX004 (sc), vehicle: saline with Tween-80): 84 % of control | T/C (dose: 450.0 mg/kg/injection, schedule: Q04DX004 (sc), vehicle: saline with Tween-80): 96 % of control | T/C (dose: 900.0 mg/kg/injection, schedule: Q04DX004 (sc), vehicle: saline with Tween-80): 55 % of control | T/C (dose: 1800.0 mg/kg/injection, schedule: Q04DX004 (sc), vehicle: saline with Tween-80): 100 % of control

CCCCNCCCNCCCNC(=O)c1csc(-c2csc(CCNC(=O)C(NC(=O)C(C)C(O)C(C)NC(=O)C(NC(=O)c3nc(C(CC(N)=O)NCC(N)C(N)=O)nc(N)c3C)C(OC3OC(CO)C(O)C(O)C3OC3OC(CO)C(O)C(OC(N)=O)C3O)c3cnc[nH]3)C(C)O)n2)n1 (stereo not drawn)
T/C (dose: 8.0 mg/kg/injection, schedule: Q01DX010 (sc), vehicle: saline): 30 % of control | T/C (dose: 32.0 mg/kg/injection, schedule: Q01DX010 (sc), vehicle: saline): -32 % of control

COC(=O)C[C@](O)(CCC(C)(C)O)C(=O)O[C@@H]1C(OC)=C[C@]23CCCN2CCc2cc4c(cc2[C@H]13)OCO4
T/C (dose: 0.31 mg/kg/injection, schedule: Q04DX004 (sc), vehicle: saline): 68 % of control | T/C (dose: 0.63 mg/kg/injection, schedule: Q04DX004 (sc), vehicle: saline): 84 % of control | T/C (dose: 1.25 mg/kg/injection, schedule: Q04DX004 (sc), vehicle: saline): 103 % of control | T/C (dose: 2.5 mg/kg/injection, schedule: Q04DX004 (sc), vehicle: saline): 86 % of control

COc1ccc2c(ccc3oc([N+](=O)[O-])cc32)c1
T/C (dose: 150.0 mg/kg/injection, schedule: Q04DX004 (sc), vehicle: Klucel (hydroxypropylcellulose) (HPC)): 113 % of control | T/C (dose: 600.0 mg/kg/injection, schedule: Q04DX004 (sc), vehicle: Klucel (hydroxypropylcellulose) (HPC)): 76 % of control

Oc1cccc2ccccc12
T/C (dose: 150.0 mg/kg/injection, schedule: Q04DX004 (ip), vehicle: water): 63 % of control

Oc1ccc(CCl)c2cccnc12
T/C [5]: 76 % of control | T/C (dose: 150.0 mg/kg/injection, schedule: Q04DX004 (sc), vehicle: saline): 110 % of control | T/C (dose: 300.0 mg/kg/injection, schedule: Q04DX004 (sc), vehicle: saline): 89 % of control

CO[C@H]1C[C@](C)(O)Cc2cc3c(c(O)c21)C(=O)c1c(O)cc2c(c1C3=O)O[C@@H]1O[C@@]2(C)[C@H](O)[C@@H](N(C)C)[C@@H]1O
T/C (dose: 6.25 mg/kg/injection, schedule: Q01DX010 (sc), vehicle: other): 65 % of control | T/C (dose: 12.5 mg/kg/injection, schedule: Q01DX010 (sc), vehicle: other): 76 % of control

COc1cc(C(C)(C)C)cc(OC)c1C(O)(c1c(OC)cc(C(C)(C)C)cc1OC)c1c(OC)cc(C(C)(C)C)cc1OC
T/C (dose: 50.0 mg/kg/injection, schedule: Q04DX004 (sc), vehicle: saline with Tween-80): 51 % of control | T/C (dose: 100.0 mg/kg/injection, schedule: Q04DX004 (sc), vehicle: saline with Tween-80): 79 % of control | T/C (dose: 200.0 mg/kg/injection, schedule: Q04DX004 (sc), vehicle: saline with Tween-80): 63 % of control | T/C (dose: 400.0 mg/kg/injection, schedule: Q04DX004 (sc), vehicle: saline with Tween-80): 68 % of control | T/C (dose: 600.0 mg/kg/injection, schedule: Q04DX004 (sc), vehicle: saline with Tween-80): 102 % of control | T/C (dose: 1200.0 mg/kg/injection, schedule: Q04DX004 (sc), vehicle: saline with Tween-80): 80 % of control | T/C (dose: 2400.0 mg/kg/injection, schedule: Q04DX004 (sc), vehicle: saline with Tween-80): 61 % of control

CCCC(=O)OCc1cc(=O)n(C)c2c3c4c(cc12)c(C)cc(=O)n4CO3
T/C [1]: 40 % of control | T/C [2]: 43 % of control | T/C [3]: 56 % of control | T/C [4]: 27 % of control

C[n+]1c(-c2cccc3ccccc23)c2cc(N)ccc2c2ccccc21
T/C (dose: 3.0 mg/kg/injection, schedule: Q04DX004 (sc), vehicle: saline): 119 % of control | T/C (dose: 6.0 mg/kg/injection, schedule: Q04DX004 (sc), vehicle: saline): 152 % of control | T/C (dose: 12.0 mg/kg/injection, schedule: Q04DX004 (sc), vehicle: saline): 78 % of control

Nc1ccc(S(=O)(=O)Nc2cnc3c(Cl)cccc3n2)cc1
T/C (dose: 300.0 mg/kg/injection, schedule: Q04DX004 (ip), vehicle: DMSO): 85 % of control

CC(=O)c1cccc(NC2C(N)C(NC(=O)N(C)C)(C(C)O)C(C)(O)C2(O)COC(=O)c2c(C)cccc2O)c1 (stereo not drawn)
T/C (dose: 0.5 mg/kg/injection, schedule: Q04DX004 (ip), vehicle: saline): 124 % of control | T/C (dose: 1.0 mg/kg/injection, schedule: Q04DX004 (ip), vehicle: saline): 93 % of control | T/C (dose: 2.0 mg/kg/injection, schedule: Q04DX004 (ip), vehicle: saline): 75 % of control | T/C (dose: 4.0 mg/kg/injection, schedule: Q04DX004 (ip), vehicle: saline): 100 % of control

O=C1C=CC(n2cc(F)c(=O)[nH]c2=O)O1 (stereo not drawn)
T/C (dose: 37.5 mg/kg/injection, schedule: Q04DX004 (sc), vehicle: suspension in saline): 87 % of control | T/C (dose: 75.0 mg/kg/injection, schedule: Q04DX004 (sc), vehicle: suspension in saline): 88 % of control | T/C (dose: 150.0 mg/kg/injection, schedule: Q04DX004 (sc), vehicle: suspension in saline): 47 % of control

COc1cccc2c1C(=O)c1c(O)c3c(c(O)c1C2=O)CC(O)(C(=O)CO)CC3OC1CC(N)C(O)C(C)O1 (stereo not drawn)
T/C (dose: 37.5 mg/kg/injection, schedule: Q04DX004 (sc), vehicle: water): 32 % of control and 53 % of control | T/C (dose: 75.0 mg/kg/injection, schedule: Q04DX004 (sc), vehicle: water): 111 % of control and 117 % of control | T/C (dose: 300.0 mg/kg/injection, schedule: Q04DX004 (sc), vehicle: water): 55 % of control and 68 % of control

C[C@@H]1C[C@@H]([C@H](O)CC2CC(=O)NC(=O)C2)C(=O)[C@@H](C)C1
T/C [5]: 43 % of control
